Data taken from patent US9198886B2, “Use of 2,5-dihydroxybenzene for the treatment of ocular diseases” (priority 2006, dated 2015).

How the values were obtained:
[1] = test system: intestinal inflammatory disease induced by dextran sulfate sodium; experiment: DSS-induced intestinal inflammatory disease in mice; format: in vivo, mice of strain C57BL/6J-664
Experimental: The mice were subject to two 7-day cycles of exposure to dextran sulfate sodium (DSS) (from day 1 to 7 and from day 14 to 21) in the drinking water separated by 7 days in which regular water was provided (from 7 to 14). One group was treated with vehicle (0.9% NaCl), another with Solu-Medrol (10 mg/kg/day i.m.), and the other two groups with potassium 2,5-diacetoxybenzene sulfonate (DABS), one of them with 100 mg/kg/day i.p. and the other with 125 mg/kg/day, orally (p.o.). The body weight was normalized on day 0. Data are expressed as the mean+SD of the percentage of the basal weight (day 0) of 10 mice per group.
The mice were subject to two 7-day cycles of exposure to dextran sulfate sodium (DSS) (from day 1 to 7 and from day 14 to 21) in the drinking water separated by 7 days in which regular water was provided (from 7 to 14). One group was treated with vehicle (0.9% NaCl), another with Solu-Medrol (10 mg/kg/day i.m.), and the other two groups with potassium 2,5-diacetoxybenzene sulfonate (DABS), one of them with 100 mg/kg/day i.p. and the other with 125 mg/kg/day, orally (p.o.) Data are expressed as the mean±SD of the clinical score of the disease continuously obtained from 10 mice per each group.
The induction of the intestinal inflammatory disease described below is a representative model for the evaluation of therapeutic strategies to treat Crohn's disease and ulcerative colitis. 7-8 week old female mice of strain C57BL/6J-664 were used. The intestinal inflammatory disease (HD) was induced by feeding the mice with 3% dextran sulfate sodium (DSS; MW 40,000) dissolved in drinking water in 2 cycles. Each cycle consisted of 7 days with 3% DSS in the drinking water separated by 7 days with regular water. A daily clinical evaluation of the animals was performed in which the body weight, the consistency of the faeces and the presence of blood in the faeces were determined. Thus, the validated score of the clinical activity of the disease was evaluated with a 0 to 6 scale, considering the following parameters: consistency of the faeces, presence or absence of fecal blood and loss of weight.
At the end of the first cycle of exposure to DSS, the mice were divided into the following treatment groups: a first group was administered intraperitoneal (i.p) injections of vehicle (0.9% NaCl). Another group received intramuscular injections of Solu-Medrol, a standard IID treatment, at a dose of 10 mg/kg/day. A third group was administered i.p. injections of potassium 2,5-diacetroxybenzene sulfonate (DABS, 100 mg/kg/day). The last group was treated orally with 125 mg/kg day of DABS.

endometriotic lesions = experiment: Rat model of endometriosis, histology of autologous implant; format: in vivo, Sprague-Dawley rats; settings: 200 mg/kg/day i.p., two weeks
Source text: In these rats, the epithelial layer (a) and the stroma (b) are clearly observed in the endometrium, while longitudinal (c) and circular (d) normal layers of smooth muscle cells are observed in the myometrium adjacent to the peritoneal tissue (e). […] The neovascularization observed in the uterine tissue implanted in control rats (shown with arrows in A) is not present in rats treated with 2,5-dihydroxybenzenesulfonic (DHBS) (C). • D) Magnification of the area marked with a box in C.
Sprague-Dawley rats were anesthetized as described (Fernández-Tornero C et al. J Biol Chem, 2003). Endometriotic lesions were induced using a known rat model of endometriosis (Vernon M W and Wilson E A. Fertil Steril, 1985). In summary, 2 mm fragments of the cervix were autologously implanted between branches in the mesenteric vascular tree. The rats were treated or not treated (control) daily during two weeks after the surgery with 2,5-dihydroxybenzene sulfonic acid (DHBS) (200 mg/kg; i.p.). Then, the rats were sacrificed and the endometrial ectopic tissue was removed to make its histological examination. […] This example illustrates the therapeutic activity of 2,5-dihydroxybenzene sulfonate (DHBS) in the treatment of endometriosis.

| Structure (SMILES) | disease clinical score ([1]; 100 mg/kg/day i.p.) | disease clinical score ([1]; 125 mg/kg/day orally) | loss of body weight produced by two cycles of DSS ([1]; DABS 100 mg/kg/day i.p. or 125 mg/kg/day p.o., Solu-Medrol 10 mg/kg/day i.m., vs vehicle) | efficacy compared with standard treatment Solu-Medrol ([1]; body weight and clinical score, Solu-Medrol 10 mg/kg/day i.m.) | histology of implanted tissue (hematoxylin-eosin) (endometriotic lesions) | neovascularization of implanted uterine tissue (endometriotic lesions) |
| --- | --- | --- | --- | --- | --- | --- |
| CC(=O)Oc1ccc(OC(C)=O)c(S(=O)(=O)[O-])c1.[K+] [DABS, potassium 2,5-diacetoxybenzene sulfonate] | reduced | reduced | reduced | not lower (in some points it is higher) | – | – |
| O=S(=O)(O)c1cc(O)ccc1O [DHBS, 2,5-dihydroxybenzene sulfonic acid] | – | – | – | – | athrophy of the cervix tissue implanted | not present |
